According to patent US8653048B2 (Sanlugen Pharmatech Ltd., priority 2009, dated 2014):

Assays:
[1] = test system: NCI-H460: a human lung cancer cell line; assay: MTT analytical method, NCI-H460 cells; type: cell-based; conditions: 72 h
Excerpt: (§1) MTT analytical method was used to test the prodrugs for various tumor cells.
(§2) • 1) Cell lines: NCI-H460, A549, LOVO, HT-29, MDA-MB-231, SGC7901, HepG2 or BEL-7402 cell lines. Culture: adherent culturing in D-MEM (Hyclone, Inc.) containing 10% fetal calf serum. The initial cell concentration was about 3×10^5 /mL. The cell was passaged by 1:3 dilution in every 2-3 days. On the day before the test, the cell was passaged by 1:2 dilution, the cell concentration for the test was 5-10×10^5 /mL. • 2) Dissolution and dilution of compounds: according to the weight and molecular weight of the drugs provided, 100-200 μL of DMSO was added. Then normal saline was added to make the final diluted concentration of the drugs be 5 mM (Note that the final concentration of DMSO should not be more than 10%). • 3) D-MEM or RPMI 1640 cell culture medium, Gibco, Inc. • 4) Fetal calf serum Hyclone, Inc. • 5) Cell dissociation buffer, 0.25% Trypsin+0.02% EDTA. • 6) MTT solution, MTT Powder (Sigma) were dissolved in PBS buffer solution to make a solution of 5 mg/mL. The solution was filtered by a 0.22 μm micropore membrane and stored at −20° C. • 7) PBS buffer solution. • 8) 10% acidified SDS, 0.01N HCl. • 9) Centrifuge tubes, haustorial tubes etc. (BD, Inc.); 96-well plates (Costatr, Inc.) Procedures: • 1) Cell inoculation: Cells grown for 24 hours after passage, which cells were in good growth state, were used. The cells were harvested by the routine method. The cell concentration was adjust with a fresh culture solution to 2×10^5/mL (for adherent cells)-3×10^5/mL (for suspension cells). The adherent cells were inoculated at 100 μL/well and then cultivated in an incubator with 5% CO2 at 37° C. for 24 h. Thereafter the used culture solution was removed and 95 μL/well of fresh culture solution was added. The suspension cells were inoculated at 95 μL/well directly. • 2) Drugs treatment: 9 concentration grades were designed for every drug, and every concentration had 3 wells. The control group had 5 wells. The control group was tested simultaneously in each test. The final concentrations of a drug added were […], and 5 μL normal saline was added to the control group. • 3) Cell culture and detection: the cells were cultured in an incubator with 5% CO2 at 37° C. for 72 h after the drug was added, then 10 μL MTT was added to each well and the culture was continued for 4 h. 100 μL of 10% SDS (containing 0.01N HCl) was added to each well. After 24 h, the absorbance (A) of each well was determined by Bio-rad 680 ELISA with the detection wavelength of 570 nm and the reference wavelength of 630 nm. Calculation:
(§3) First, the absorbance (A) of each well was averaged (removing any data with big difference). […] A0 was the mean absorbance of the control wells. The effect curve of the drug concentration was drawn using EXCEL software and the drug concentration for 50% cell survival was calculated according to an appropriate computing methods.

[2] = test system: HT29: a human colon cancer cell line; assay: MTT analytical method, HT29 cells; type: cell-based; conditions: HT-29, 72 h
Excerpt: as §1, §2, §3

[3] = test system: LOVO: a human colon cancer cell line; assay: MTT analytical method, LOVO cells; type: cell-based; conditions: 72 h
Excerpt: as §1, §2, §3

[4] = test system: Bel7402: a human liver cancer cell line; assay: MTT analytical method, Bel7402 cells; type: cell-based; conditions: Bel-7402, 72 h
Excerpt: as §1, §2, §3

[5] = test system: HepG2: a human liver cancer cell line; assay: MTT analytical method, HepG2 cells; type: cell-based; conditions: 72 h
Excerpt: as §1, §2, §3

[6] = test system: SGC7901: a human gastric cancer line; assay: MTT analytical method, SGC7901 cells; type: cell-based; conditions: SGC-7901, 72 h
Excerpt: as §1, §2, §3

[7] = test system: MDA-MB-231: a human breast cancer line; assay: MTT analytical method, MDA-MB-231 cells; type: cell-based; conditions: MDA-MB-231, MTT, 72 h
Excerpt: as §1, §2, §3

[8] = test system: A549: a human lung cancer cell line; assay: MTT analytical method, A549 cells; type: cell-based; conditions: 72 h
Excerpt: as §1, §2, §3

Hepatocellular Carcinoma = conditions: patients, liver cancer treatment; cited from earlier work

SMILES	IC50 [1]	IC50 [2]	IC50 [3]	IC50 [4]	IC50 [5]	IC50 [6]	IC50 [7]	IC50 [8]	fatal rate of complication (Hepatocellular Carcinoma)
CCCCCCCCCCCOC(=O)c1nccnc1C(=O)Nc1ccn([C@@H]2O[C@H](CO)[C@@H](O)C2(F)F)c(=O)n1 [Compound 5, Undecyl-3-((1-((2R,4R,5R)-3,3-difluoro-4-hydroxy-5-(hydroxymethyl)-tetrahydrofuran-2-yl)-2-oxo-1,2-dihydropyrimidin-4-yl)carbamoyl)pyrazine-2-carboxylate]	< 2000 nM	30 µM	1 µM	16 µM	4 µM	> 16 µM	> 16 µM		
CCCCCCCCCCCCOC(=O)c1ccc(C(=O)Nc2ccn([C@@H]3O[C@H](CO)[C@@H](O)C3(F)F)c(=O)n2)nc1 [Compound 8, Dodecyl-6-((1-((2R,4R,5R)-3,3-difluoro-4-hydroxy-5-(hydroxymethyl)-tetrahydrofuran-2-yl)-2-oxo-1,2-dihydropyrimidin-4-yl)carbamoyl)nicotinate]	< 2000 nM	6 µM	14 µM	23 µM	7 µM	> 16 µM	> 16 µM	4 µM	
CCCCCCCCCCCCOC(=O)c1ccc(C(=O)Nc2ccn([C@@H]3O[C@H](CO)[C@@H](O)C3(F)F)c(=O)n2)cn1 [Compound 9, Dodecyl-5-((1-((2R,4R,5R)-3,3-difluoro-4-hydroxy-5-(hydroxymethyl)-tetrahydrofuran-2-yl)-2-oxo-1,2-dihydropyrimidin-4-yl)carbamoyl)picolinate]	< 2000 nM	3 µM	5 µM	13 µM	6 µM	> 16 µM	> 16 µM	4 µM	
CCCCCCCCCCCCOC(=O)c1cc(C(=O)Nc2ccn([C@@H]3O[C@H](CO)[C@@H](O)C3(F)F)c(=O)n2)[nH]n1 [Compound 31, Dodecyl-5-((1-((2R,4R,5R)-3,3-difluoro-4-hydroxy-5-(hydroxymethyl)-tetrahydrofuran-2-yl)-2-oxo-1,2-dihydropyrimidin-4-yl)carbamoyl)-1H-pyrazole-3-carboxylate]		7 µM		30 µM				21 µM	
COc1cccc2c1C(=O)c1c(O)c3c(c(O)c1C2=O)C[C@@](O)(C(=O)CO)C[C@@H]3O[C@H]1C[C@H](N)[C@H](O)[C@H](C)O1 [Doxorubicin]									~25%

More lines, main results first:

IC50 [1]	IC50 [2]	IC50 [3]	IC50 [4]	IC50 [5]	IC50 [6]	IC50 [7]	IC50 [8]	SMILES	fatal rate of complication (Hepatocellular Carcinoma)
< 1000 nM	< 2 µM	16 µM	4 µM	4 µM	> 16 µM	11 µM	3 µM	CCCCCCCCCCCOC(=O)c1ncccc1C(=O)Nc1ccn([C@@H]2O[C@H](CO)[C@@H](O)C2(F)F)c(=O)n1 [Compound 15, Undecyl-3-((1-((2R,4R,5R)-3,3-difluoro-4-hydroxy-5-(hydroxymethyl)-tetrahydrofuran-2-yl)-2-oxo-1,2-dihydropyrimidin-4-yl)carbamoyl)picolinate]	
	30 µM		16 µM				8 µM	CCCCCCCCCCCOC(=O)c1ccncc1C(=O)Nc1ccn([C@@H]2O[C@H](CO)[C@@H](O)C2(F)F)c(=O)n1 [Compound 22, Undecyl-3-((1-((2R,4R,5R)-3,3-difluoro-4-hydroxy-5-(hydroxymethyl)-tetrahydrofuran-2-yl)-2-oxo-1,2-dihydropyrimidin-4-yl)carbamoyl)isonicotinate]	
	8 µM		16 µM				8 µM	CCCCCCCCCCCCOC(=O)c1ccncc1C(=O)Nc1ccn([C@@H]2O[C@H](CO)[C@@H](O)C2(F)F)c(=O)n1 [Compound 24, Dodecyl-3-((1-((2R,4R,5R)-3,3-difluoro-4-hydroxy-5-(hydroxymethyl)-tetrahydrofuran-2-yl)-2-oxo-1,2-dihydropyrimidin-4-yl)carbamoyl)isonicotinate]	
< 1000 nM	2 µM	16 µM	8 µM	2 µM	> 16 µM	6 µM	3 µM	CCCCCCCCCCCCOC(=O)c1ccnc(C(=O)Nc2ccn([C@@H]3O[C@H](CO)[C@@H](O)C3(F)F)c(=O)n2)c1 [Compound 26, Dodecyl-2-((1-((2R,4R,5R)-3,3-difluoro-4-hydroxy-5-(hydroxymethyl)-tetrahydrofuran-2-yl)-2-oxo-1,2-dihydropyrimidin-4-yl)carbamoyl)isonicotinate]	
< 1000 nM	< 2 µM	2 µM	4 µM	1 µM	> 16 µM	< 1 µM	4 µM	CCCCCCCCCCCCOC(=O)c1cc(C(=O)Nc2ccn([C@@H]3O[C@H](CO)[C@@H](O)C3(F)F)c(=O)n2)ccn1 [Compound 27, Dodecyl-4-((1-((2R,4R,5R)-3,3-difluoro-4-hydroxy-5-(hydroxymethyl)-tetrahydrofuran-2-yl)-2-oxo-1,2-dihydropyrimidin-4-yl)carbamoyl)picolinate]	
	2 µM		8 µM				8 µM	CCCCCCCCCCCOC(=O)c1ccnc(C(=O)Nc2ccn([C@@H]3O[C@H](CO)[C@@H](O)C3(F)F)c(=O)n2)c1 [Compound 28, Undecyl-2-((1-((2R,4R,5R)-3,3-difluoro-4-hydroxy-5-(hydroxymethyl)-tetrahydrofuran-2-yl)-2-oxo-1,2-dihydropyrimidin-4-yl)carbamoyl)isonicotinate]	
	< 2 µM		8 µM				3 µM	CCCCCCCCCCCOC(=O)c1cc(C(=O)Nc2ccn([C@@H]3O[C@H](CO)[C@@H](O)C3(F)F)c(=O)n2)ccn1 [Compound 29, Undecyl-4-((1-((2R,4R,5R)-3,3-difluoro-4-hydroxy-5-(hydroxymethyl)-tetrahydrofuran-2-yl)-2-oxo-1,2-dihydropyrimidin-4-yl)carbamoyl)picolinate]	
	4 µM		16 µM				14 µM	CCCCCCCCCCCOC(=O)c1cc(C(=O)Nc2ccn([C@@H]3O[C@H](CO)[C@@H](O)C3(F)F)c(=O)n2)[nH]n1 [Compound 30, Undecyl-5-((1-((2R,4R,5R)-3,3-difluoro-4-hydroxy-5-(hydroxymethyl)-tetrahydrofuran-2-yl)-2-oxo-1,2-dihydropyrimidin-4-yl)carbamoyl)-1H-pyrazole-3-carboxylate]	
